The text below walks through data of patent publication US6225478A, “Iridoid derivatives and neovascularization inhibitors containing the same as active ingredient” (Tsumura & Co., priority 1999, dated 2001).

Structures are written as SMILES.

For orientation: inhibition means the change of the read-out against control, counted positive when it falls.

In one test the test system is HUFEC. Put plainly: Cell Migration Assay (CMA) Test, inhibitory rate with control (-) correction. The format is cell-based, human. As to conditions: Homo sapiens, 24 h, 125 μl of 0.32 mM sample solution in 4.0 ml medium, 80% or more = remarkable. As to the method:
(§1) Samples were prepared using the present compounds of Compound No. I-60 through I-315. More specifically, 32 μl of a 20 mM sample solution dissolved in dimethylsulfoxide (DMSO) were removed and brought to a volume of 1 ml with phosphate-buffered saline (PBS) to prepare a sample solution having a concentration of 0.32 mM (containing 3.2% DMSO).
After disseminating the 7th subculture of […] obtained from the first generation at 4 ml/well (3.0×10^5 cells/well) in a collagen-coated 6-well plate (NUNC), the cells were cultured for 48 hours at 37° C. in the presence of 5% CO2. The cells reached nearly a completely confluent state as a result of this culturing.
A double-edged, disposable razor blade was divided into four sections, of which one of those sections was pinched between a pair of forceps. Using this piece of razor blade, the cell surface in the above confluent state was scraped off.
After washing the surface of the wells from which the cells had been scraped off with medium, 4.0 ml of fresh M199 (2+) medium were placed in the wells. 4.0 ml of M199 medium were added to the control (-) well.
125 μl of sample solution (0.32 mM, containing 3.2% dimethylsulfoxide) were added to the wells.
125 μl of PBS solution containing 3.2% dimethylsulfoxide were added to the control wells instead of sample. The cells were cultured for 24 hours at 37° C. in the presence of 5% CO2. After discarding the culture liquid, the cells were fixed for 30 minutes with methanol. Next, after […] the cells for 4 hours with Giemsa stain, the plates were washed with tap water and air dried.
Measurement of cell migration was performed by microscopically counting the number of cells that had newly migrated within the range of a 1 mm×1 mm block. […] The total number of cells counted in blocks 1 through 5 were then totaled to determine the overall total number of cells. Four fields were counted for each well.
Evaluation was performed determining the cell migration inhibitory rate (%) according to the following equation.
Inhibitory rate=100-((number of migrating cells to which sample was added-number of migrating cells of control (-))×100/(number of migrating cells of control (+)-number of migrating cells of control (-)))
If this inhibitory rate was 80% or more, cell migration was assessed as being remarkable.

The subject of test [1] is human umbilical-vein endothelial cells (HUVEC). In words: Tube Formation Assay (TFA) Test, HUVEC in collagen gel. The format is cell-based. As to conditions: Homo sapiens, HUVEC, Tables 75-83; 0.32 mM sample solution; method as for Compounds 1 through 60; read-out: TFA Inhibition rate (%). As to the method: Furthermore, the sample liquids of compounds used in the CPA and CMA tests were prepared in the manner described below. Firstly, after weighing out each compound, a calculated amount of DMSO was added. After dissolving the compound in the DMSO, phosphate buffered physiological saline (PBS (-)) was added to bring the sample concentration to 1 mg/ml in PBS (-). The amount of DMSO used to dissolve the compounds was adjusted in advance to that the concentration of DMSO at that time was 5%. The resulting liquids were diluted 10-fold with 5% DMSO-PBS (-) solution to prepare sample solutions having a concentration of 0.1 mg/ml. In the TFA test, 320 μl of the prepared 1 mg/ml sample solutions were removed followed by addition of 680 μl of PBS (-) to prepare samples having a concentration of […]. Moreover, 100 μl of this solution was removed followed by addition of 900 μl of PBS (-) to dilute 10-fold and prepare samples having a concentration of 1 μg/ml. P [Cell Proliferation Assay (CPA) Test]
To begin with, 8 volumes of Type 1-A cell matrix (manufactured by Gibco Co.), 1 volume of 10×M119, and 1 volume of reconstituted buffer [200 mM HEPES, 0.05 N sodium hydroxide, 260 mM sodium bicarbonate] were slowly mixed under cooling with ice while avoiding bubbling to form a collagen gel. This collagen gel was distributed in a NUNC 24-well plate at 310 μl/well followed by allowing to stand undisturbed for 2 hours at 37° C. to solidify the gel.
Next, the 7th subculture of HUVEC (1×10^5 cells/ml) obtained from the first generation in the same manner as above were disseminated at 500 μl/well. The cells were cultured for 2 hours at 37° C. to allow the cells to make contact with the collagen. After then removing the medium by aspiration, 50 μl of sample solution were added followed by addition of 310 μl/well of freshly prepared collagen gel and culturing for 1 hour and 10 minutes at 37° C. to solidify the double-layer gel.
1 ml/well of M-199 medium containing 20% FCS, 30 ng /ml of b-FGF and 0.1 μM PMA were added to the wells followed by culturing for 20 hours at 37° C. in the presence of 5% CO2.
Measurement of the lengths of the formed tubes was performed using the public domain NIH Image with a computer.
Evaluation was performed by calculating the inhibition rate (%) of tube formation according to the following formula.
Inhibition rate (%)=100-((formed tube length in presence of sample-formed tube length in presence of control (-))×100/(formed tube length in presence of control (+)-formed tube length in presence of control (-)))
as §1
The testing method used for these compounds was the same as that used for the compounds of Compound No. 1 through 60 previously described.

Take `CCOc1ccccc1N1CCN(C(=O)O[C@@H]2OC=C(C(=O)OC)[C@H]3CC[C@H](C)[C@@H]23)CC1` [I-243]: the inhibition at 320 µM (stock) with HUFEC was found to be 6.7%; in test [1], 8.1%.
For the compound `COC(=O)C1=CO[C@@H](OC(=O)Nc2ccc(Cl)cc2C(F)(F)F)[C@@H]2C(C)=CC[C@H]12` [I-164], the inhibition at 320 µM (stock) came to 5.9% with HUFEC and 2.5% in test [1].
Turning to `CCCCCCC1=CC[C@@H]2C(C(=O)OC)=CO[C@@H](OC(=O)NC)[C@H]12` [I-299], the inhibition at 320 µM (stock) was determined as 5.9% in the test with HUFEC and 8.8% in test [1].
The matching figures for `O=C(C1=COC[C@@H]2C(CO)=CC[C@H]12)N1CCN(CCO)CC1` [I-301]: 56% and 15.9%.
Consider `COC(=O)C1=CO[C@@H](OC(=O)NCCc2ccccn2)[C@@H]2C(C)=CC[C@H]12` [I-79], for which the inhibition at 320 µM (stock) with HUFEC worked out at 13.7%; in test [1], 4.7%.
The matching figures for `COC(=O)C1=CO[C@@H](OC(=O)N2CCSCC2)[C@@H]2C(C)=CC[C@H]12` [I-114]: 9.4% and 6.8%.
Consider `COC(=O)C1=CO[C@@H](OC(=O)NCc2cccnc2)[C@H]2[C@@H]1CC[C@@H]2C` [I-178], for which the inhibition at 320 µM (stock) with HUFEC stood at 6.3%; in test [1], 5.8%.
With `CNC(=O)O[C@@H]1OC=C(C(=O)NC)[C@H]2CC=C(C)[C@@H]12` [I-310], the inhibition at 320 µM (stock) with HUFEC came to 20.7%; in test [1] it was 20.1%.
For `COC(=O)C1=CO[C@@H](OC(=O)NCC(C)C)[C@H]2[C@@H]1CC[C@@H]2C` [I-190] the same measures were 21.8% and 12.8%.
In the case of `COC(=O)C1=CO[C@@H](OC(=O)Nc2ccc(OC)cc2)[C@H]2[C@@H]1CC[C@@H]2C` [I-263], the inhibition at 320 µM (stock) in the test with HUFEC is 7.2%; in test [1], 5.5%.
The matching figures for `CCOC(=O)CCCNC(=O)O[C@@H]1OC=C(C(=O)OC)[C@H]2CC=C(C)[C@@H]12` [I-135]: 23.4% and 4.7%.
`COC(=O)C1=CO[C@@H](OC(=O)NC(=O)CCl)[C@@H]2C(C)=CC[C@H]12` [I-152]: the results for the inhibition at 320 µM (stock) (in the test on HUFEC; in test [1]) were 33.7% and 51%, respectively.
For `COC(=O)C1=CO[C@@H](OC(=O)NCc2cccnc2)[C@@H]2C(C)=CC[C@H]12` [I-76] the same measures were 7.6% and 4.6%.
For `COC(=O)C1=CO[C@@H](OC(=O)N(C)C)[C@@H]2C(C)=CC[C@H]12` [I-136] the same measures were 8.3% and 15.6%.
The matching figures for `COC(=O)C1=CO[C@@H](OC(=O)N2CCC(Cc3ccccc3)CC2)[C@@H]2C(C)=CC[C@H]12` [I-94]: 3.9% and 6.2%.
As to `COC(=O)C1=CO[C@@H](OC(=O)NCCN(C)C)[C@H]2[C@@H]1CC[C@@H]2C` [I-222], the inhibition at 320 µM (stock) in the test on HUFEC worked out at 3.7%; in test [1], 20.8%.
In the case of `COC(=O)C1=COC[C@H]2[C@@H]1C[C@@H]1O[C@@]12C` [I-303], the inhibition at 320 µM (stock) in the test on HUFEC was 6.1%; in test [1], 30.6%.
The matching figures for `COC(=O)C1=CO[C@@H](OC(=O)NCC2CCCO2)[C@@H]2C(C)=CC[C@H]12` (stereo partly drawn) [I-78]: 23.4% and 5.1%.
The matching figures for `COC(=O)C1=CO[C@@H](OC(=O)NCCCl)[C@H]2[C@@H]1CC[C@@H]2C` [I-258]: 5.7% and 3.8%.
Turning to `COC(=O)CNC(=O)O[C@@H]1OC=C(C(=O)OC)[C@H]2CC[C@H](C)[C@@H]12` [I-246], the inhibition at 320 µM (stock) in the test on HUFEC is 23.4%; in test [1], 4.9%.
The matching figures for `COC(=O)C1=CO[C@@H](OC(=O)N(CCO)CCO)[C@@H]2C(C)=CC[C@H]12` [I-138]: 3.5% and 2.5%.
